Common to all, as to type: biochemical
In assay [1] the test system is CBH I polypeptide BD29555, wild type, SEQ ID NO:1. Nature of the assay: 4-Methylumbelliferyl lactoside (4-MUL) assay, cellobiose inhibition, wild type BD29555. How it is done: (§1) 4-Methylumbelliferyl Lactoside (4-MUL) Assay: This assay measures the activity of CBH I on the fluorogenic substrate 4-MUL (also known as MUL). Assays were run in a costar 96-well black bottom plate, where reactions were initiated by the addition of 4-MUL to enzyme in buffer (2 mM 4-MUL in 200 mM MES pH 6). Enzymatic rates were monitored by fluorescent readouts over five minutes on a SPECTRAMAX™ plate reader (ex/em 365/450 nm). Data in the linear range was used to calculate initial rates (Vo).
(§2) Cellobiose Tolerance Assays (or Cellobiose Inhibition Assays): Tolerance to cellobiose (or inhibition caused by cellobiose) was tested in two ways in the CBH I assays. A direct-dose tolerance method can be applied to all of the CBH I assays (i.e., 4-MUL, PASC, and/or bagasse assays), and entails the exogenous addition of a known amount of cellobiose into assay mixtures. A different indirect method entails the addition of an excess amount of β-glucosidase (BG) to PASC and bagasse assays (typically, 1 mg β-glucosidase/g solids loaded). […]
(§3) Cellobiose dose response curves of the wild-type and R273K/R422K variant of BD29555 were obtained during the 4-MUL assay. Enzyme rates (Vo) were measured in the presence of different concentrations of cellobiose (200 mM MES pH 6, 25° C.). Rates were measured in quadruplicate.

Assay [2] has as its system BD29555 CBH I variant R273K/R422K (R268K/R411K by T. reesei numbering; parent SEQ ID NO:1; full length SEQ ID NO:301, mature SEQ ID NO:302). Kind of assay: 4-MUL assay, cellobiose inhibition, BD29555 R273K/R422K variant. How it is done:
as §1
(§4) Cellobiose Tolerance Assays (or Cellobiose Inhibition Assays): Tolerance to cellobiose (or inhibition caused by cellobiose) was tested in two ways in the CBH I assays. A direct-dose tolerance method can be applied to all of the CBH I assays (i.e., 4-MUL, PASC, and/or bagasse assays), and entails the exogenous addition of a known amount of cellobiose into assay mixtures. A different indirect method entails the addition of an excess amount of β-glucosidase (BG) to PASC and bagasse assays (typically, 1 mg β-glucosidase/g solids loaded). BG will enzymatically hydrolyze the cellobiose generated during these assays; therefore, CBH I activity in the presence of BG can be taken as a measure of activity in the absence of cellobiose. Furthermore, when activity in the presence and absence of BG are similar, this indicates tolerance to cellobiose.
(§5) The wild type CBH I polypeptide BD29555 was mutagenized to identify variants with improved product tolerance. […] This product-release-site library was designed based on residues directly interacting with the cellobiose product in an attempt to identify variants with weakened interactions with cellobiose from which the product would be released more readily than the wild type enzyme. […]
as §3

For assay [3], the system named is BD29555 CBH I variant R273K/Y274Q/D281K/Y410H/P411G/R422K (parent SEQ ID NO:1). Kind of assay: 4-MUL assay, cellobiose inhibition, BD29555 R273K/Y274Q/D281K/Y410H/P411G/R422K variant. Particulars: 250 mg/L cellobiose, (activity with cellobiose)/(activity without cellobiose)*100. How it is done: as §1
as §4, with “to cellobiose. […]” for “to cellobiose.”

The target of assay [4] is T1, T. reesei CBH I, wild type, SEQ ID NO:2 (Trichoderma reesei, UniProt P62694, INS458P/R459P). Nature of the assay: 4-MUL assay, cellobiose inhibition, wild type T. reesei CBH I. Conditions: read-out: % Activity in 4-MUL Assay (+/−Cellobiose). How it is done: as §1, §2
T1 sequence (P62694 other isoform, or with tags, fused parts or gaps INS458P/R459P): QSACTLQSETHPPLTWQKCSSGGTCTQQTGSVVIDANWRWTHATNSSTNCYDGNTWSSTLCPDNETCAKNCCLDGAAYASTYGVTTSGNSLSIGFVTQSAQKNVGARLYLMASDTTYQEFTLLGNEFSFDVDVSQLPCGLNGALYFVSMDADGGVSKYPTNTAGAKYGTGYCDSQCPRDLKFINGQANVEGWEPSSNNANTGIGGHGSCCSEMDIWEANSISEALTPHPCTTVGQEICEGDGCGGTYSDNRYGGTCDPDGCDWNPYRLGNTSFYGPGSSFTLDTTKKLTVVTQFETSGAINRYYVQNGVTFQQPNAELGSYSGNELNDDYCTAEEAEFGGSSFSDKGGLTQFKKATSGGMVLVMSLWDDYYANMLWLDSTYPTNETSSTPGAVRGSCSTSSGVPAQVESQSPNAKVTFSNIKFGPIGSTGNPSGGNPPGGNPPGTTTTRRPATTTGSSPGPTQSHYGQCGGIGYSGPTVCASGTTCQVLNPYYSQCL
(§6) Cellobiose product tolerant substitutions were introduced into T. reesei CBH I (SEQ ID NO:2). A panel of variants with single and double alanine and lysine substitutions at R268 and R411 were expressed and analyzed. […]

Assay [5] addresses T. reesei CBH I variant R268K/R411K (parent SEQ ID NO:2) (Trichoderma reesei, UniProt A0A024RXP8, R268K/R411K). Kind of assay: 4-MUL assay, cellobiose inhibition, T. reesei CBH I R268K/R411K. Particulars: read-out: % Activity in 4-MUL Assay (+/−Cellobiose), 250 mg/L cellobiose, (activity with cellobiose)/(activity without cellobiose)*100. How it is done: as §1, §2, §6
Assay [6] concerns the target T. reesei CBH I variant R268A/R411A (parent SEQ ID NO:2) (Trichoderma reesei, UniProt A0A024RXP8, R268A/R411A). Nature of the assay: 4-MUL assay, cellobiose inhibition, T. reesei CBH I R268A/R411A. Conditions: read-out: % Activity in 4-MUL Assay (+/−Cellobiose), 250 mg/L cellobiose, (activity with cellobiose)/(activity without cellobiose)*100. How it is done:
as §1, §2, §6

In assay [7] the target is T. reesei CBH I variant R268A/R411K (parent SEQ ID NO:2) (Trichoderma reesei, UniProt A0A024RXP8, R268A/R411K). Nature of the assay: 4-MUL assay, cellobiose inhibition, T. reesei CBH I R268A/R411K. Particulars: read-out: % Activity in 4-MUL Assay (+/−Cellobiose), 250 mg/L cellobiose, (activity with cellobiose)/(activity without cellobiose)*100. How it is done: as §1, §2, §6
Chain of T. reesei CBH I variant R268A/R411K (parent SEQ ID NO:2) (A0A024RXP8 18-514 R268A/R411K): as the sequence (P62694 other isoform, or with tags, fused parts or gaps INS458P/R459P) above, with R251A, R394K counted along it

For assay [8], the target named is T. reesei CBH I variant R268K/R411A (parent SEQ ID NO:2) (Trichoderma reesei, UniProt A0A024RXP8, R268K/R411A). Nature of the assay: 4-MUL assay, cellobiose inhibition, T. reesei CBH I R268K/R411A. Conditions: read-out: % Activity in 4-MUL Assay (+/−Cellobiose), 250 mg/L cellobiose, (activity with cellobiose)/(activity without cellobiose)*100. How it is done:
as §1, §2, §6

Assay [9] deals with CBH I polypeptide BD29555, wild type, SEQ ID NO:1. Kind of assay: Phosphoric acid swollen cellulose (PASC) assay, cellobiose inhibition, wild type BD29555. Conditions: PASC substrate, FIG. 3. How it is done:
(§7) Phosphoric Acid Swollen Cellulose (PASC) Assay: This assay measures the activity of CBH I using PASC as the substrate. During the assay, the concentration of PASC is monitored by a fluorescent signal derived from calcofluor binding to PASC (ex/em 365/440 nm). The assay is initiated by mixing enzyme (15 μl) and reaction buffer (85 μl of 0.2% PASC, 200 mM MES, pH 6), and then incubating at 35° C. while shaking at 225 RPM. After 2 hours, one reaction volume of calcofluor stop solution (100 μg/ml in 500 mM glycine pH 10) is added and fluorescence read-outs obtained (ex/em 365/440 nm).
as §4, with “Furthermore, when activity in the presence and absence of BG are similar, this indicates tolerance to cellobiose.” left out

Assay [10] deals with T1, T. reesei CBH I, wild type, SEQ ID NO:2. Kind of assay: PASC assay, cellobiose inhibition, wild type T. reesei CBH I. How it is done: as §7
as §4, with “Furthermore, when activity in the presence and absence of BG are similar, this indicates tolerance to cellobiose.” left out

In assay [11] the test system is BD29555 CBH I variant R273K/R422K (parent SEQ ID NO:1; full length SEQ ID NO:301, mature SEQ ID NO:302). Kind of assay: PASC assay, cellobiose inhibition, BD29555 R273K/R422K variant. Particulars: 10 g/L cellobiose, PASC substrate, FIG. 3. How it is done:
as §7
as §4, with “Furthermore, when activity in the presence and absence of BG are similar, this indicates tolerance to cellobiose.” left out

The subject of assay [12] is BD29555 CBH I variant R273A (parent SEQ ID NO:1). Nature of the assay: Library screening, 4-MUL assay in presence and absence of cellobiose, BD29555 R273A. Particulars: library screen, 250 g/L cellobiose (so in the source), gluconolactone present. How it is done:
as §1
(§8) Cellobiose Tolerance Assays (or Cellobiose Inhibition Assays): Tolerance to cellobiose (or inhibition caused by cellobiose) was tested in two ways in the CBH I assays. A direct-dose tolerance method can be applied to all of the CBH I assays (i.e., 4-MUL, PASC, and/or bagasse assays), and entails the exogenous addition of a known amount of cellobiose into assay mixtures. […]
as §5

The test system of assay [13] is BD29555 CBH I variant R273Q (parent SEQ ID NO:1). Kind of assay: Library screening, 4-MUL assay in presence and absence of cellobiose, BD29555 R273Q. Particulars: library screen, 250 g/L cellobiose (so in the source), gluconolactone present. How it is done: as §1, §8, §5

Converted amounts (≈) assume the structure as drawn. Where only a bound is given, the exact number is not on record here.

Chain of T. reesei CBH I variant R268K/R411A (parent SEQ ID NO:2) (A0A024RXP8 18-514 R268K/R411A): as the sequence (P62694 other isoform, or with tags, fused parts or gaps INS458P/R459P) above, with R251K, R394A counted along it
Chain of T. reesei CBH I variant R268A/R411A (parent SEQ ID NO:2) (A0A024RXP8 18-514 R268A/R411A): as the sequence (P62694 other isoform, or with tags, fused parts or gaps INS458P/R459P) above, with R251A, R394A counted along it
Chain of T. reesei CBH I variant R268K/R411K (parent SEQ ID NO:2) (A0A024RXP8 18-514 R268K/R411K): as the sequence (P62694 other isoform, or with tags, fused parts or gaps INS458P/R459P) above, with R251K, R394K counted along it

On to `OC[C@H]1O[C@@H](O[C@H]2[C@H](O)[C@@H](O)C(O)O[C@@H]2CO)[C@H](O)[C@@H](O)[C@@H]1O` (stereo partly drawn) [cellobiose], for which the “% Activity in 4-MUL Assay (+/−Cellobiose)” value in [1] (250 mg/L cellobiose, (activity with cellobiose)/(activity without cellobiose)*100, wild type BD29555) is 25%; in [2] (250 mg/L cellobiose, (activity with cellobiose)/(activity without cellobiose)*100, R273K/R422K), 95%; in assay [3] it was 78%. In addition, the “half maximal inhibitory concentration (IC50 value)” value in assay [1] (4-MUL substrate, 200 mM MES pH 6, 25° C., rates in quadruplicate, FIG. 1A) stood at 60 mg/L. Further, the “tolerance to cellobiose (dose response)” value in assay [2] (4-MUL substrate, 200 mM MES pH 6, 25° C., FIG. 1B) is reported as “tolerant to cellobiose up to 250 mg/L”. For the same compound, the product tolerance entry is reported as “enhanced product tolerance” in [2] (library screen, 4-MUL assay, 250 g/L cellobiose (so in the source), gluconolactone present); “enhanced product tolerance” in [12]; “enhanced product tolerance” in assay [13]. The activity at 250 µg/mL in assay [4] is 23%; in [5], more than 90%; in assay [6], more than 90%; in assay [7], more than 90%; in assay [8], more than 90%. Besides, the figures for the IC50 in assay [9] and in assay [10] were 2200 mg/L (≈ 6.43 mM) and 8.76 mM, respectively. Besides, the “cellobiose concentration at which inhibition starts” value was “around 1 g/L” in assay [9] and “around 1 g/L” in assay [10] (PASC substrate, FIG. 3). In assay [11], the inhibition by cellobiose result is “little inhibition”.

For the origin of these results see patent publication US9096871B2, “Variant CBH I polypeptides with reduced product inhibition” (BP Corporation North America Inc., priority 2010, dated 2015).
